Experimental data taken from US20050089839A1, “Assay” (priority 2001, published 2005).
pIC50: −log10 of the molar value. Where a SMILES comes first, the peptide text is derived from it. The star is where a group is joined. Cbz = O=C(OCc1ccccc1)*

Legend:
SPPase [1] = assay: Photo-labelling of CHAPS-solubilised ER membrane proteins with TBL4K, anti-biotin western blot; type: binding, dog; conditions: 50 nM TBL4K
Protocol: CHAPS-solubilised ER membrane proteins were mixed with 50 nM TBL4K (dissolved in DMSO) and samples incubated at 30° C. for 1 hour. Where indicated, samples were irradiated with UV light before precipitation with 10% trichloroacetic acid. Proteins were resolved on Tris-glycine acrylamide gels, transferred to PVDF membrane and biotinylated proteins were visualised by western blotting with polyclonal anti-biotin antibody.
For analytical labelling, 2 μl of CHAPS-solubilised ER membrane proteins were diluted with 16 μl of SPPase buffet (25 mM HEPES-KOH, pH 7.6, 100 mM KOAc, 2 mM Mg(OAc)2, 1 mM DTI) and supplemented with 50 nM TBL4K (dissolved in DMSO). Samples were incubated at 30° C. for 1 hour and subsequently irradiated with UV light (30 seconds; 350 W high pressure mercury lamp with a pyrex filter, 10 cm distance to lamp). Proteins were precipitated with 10% trichloroacetic acid and resolved on either Tris-glycine acrylamide gels (10% T, 2.7% C) (Lämmli, 1970 Nature, 227, 570-574). Biotinylated proteins were visualised by Western blotting with a polyclonal anti-biotin antibody (Bethyl). Western blot analysis was performed as described in Section 3, Materials and Methods for R308 antisera. […]

[2] = target: T1, signal peptide peptidase (SPPase) (Canis lupus familiaris, UniProt A0A8I3P6M4); assay: In vitro translation/translocation of SP-E1/100 and core-E1/100 with ER-derived rough microsomes: SPPase processing; type: biochemical, dog; conditions: 10 μM (Z-LL)2-ketone; for Production of the 19 kDa core species (core179) from core-E1/100: FIG. 1B, FIG. 3B
T1 construct: translated in reticulocyte lysate in the presence of endoplasmic reticulum-(ER) derived rough microsomes; from tissue; host or cells: nuclease-treated rough microsomes from dog pancreas
Protocol: The mRNAs were translated in 25 μl rabbit reticulocyte lysate (Promega) containing [^35S]-methionine (Amersham-Pharmacia) and, where indicated, 2 eq of nuclease-treated rough microsomes prepared from dog pancreas (Martoglio et al., 1998, Cell Biology: A Laboratory Handbook. Academic Press, San Diego, Calif., vol 2, 265-274). To inhibit signal peptide peptidase (SPPase) processing, 10 μM (Z-LL)2-ketone was added to reactions (Weihofen et al., 2000 J Biol Chem 275, 30951-30956), and reactions were supplemented with 30 μM N-benzoyl-Asn-Leu-Thr-methyamide to prevent N-glycosylation of translated products (Martoglio et al., 1998, Cell Biology: A Laboratory Handbook. Academic Press, San Diego, Calif., vol 2,265-274). Samples were incubated for 30 min at 30° C. Reactions containing microsomes were next diluted with 25 μl of RM buffer (50 mM HEPES-KOH, pH7.6, 50 mM KOAc, 2 mM Mg(OAc)2, 1 mM DTT, 250 mM sucrose), and the salt concentration was raised to 500 mM KOAc. After incubation for 5 min on ice, membranes were separated by centrifugation through a 100 μl sucrose cushion (RM buffer with 500 mM KOAc and 500 mM sucrose) at 48,000 rpm for 3 min at 4° C. in a Beckman TLA100 rotor. Membrane pellets were prepared for SDS-PAGE as described (Weihofen et al., 2000 J Biol Chem. 275, 30951-30956).
This processing event was re-examined in an in vitro translation/translocation system. Two RNA substrates, that had been transcribed in vitro, were employed. One contained the E1 signal sequence and the N-terminal 100 aa of E1 (SP-E1/100), and the second consisted of the entire core protein, including the signal sequence, plus the N-terminal 100 aa of E1 (core-E1/100). These were translated in reticulocyte lysate in the presence of endoplasmic reticulum-(ER) derived rough microsomes and [^35S]-methionine. Microsomes were subsequently isolated and analysed for retention of radiolabelled translation products.

signal peptidase = conditions: previous studies (Weihofen et al., 2000); cited from earlier work
BHK C13 cells = assay: Abundance of HCV core protein in electroporated BHK cells treated with MG132 (western blot, immunofluorescence); type: cell-based, baby hamster; conditions: MG132 for 12 hours at 37° C.
Protocol: BHK cells were electroporated with RNA and 5 hours after incubation at 37° C., they were treated with MG132 for 12 hours at 37° C. Cells were either fixed with methanol for indirect immunofluorescence (A) or extracts were prepared for Western blot analysis (B and C).
For the purposes of the present invention, the cultured cells derived from baby hamster kidney (BHK) C13 cells were grown and maintained in Glasgow minimal Eagle's Medium supplemented with 10% new-born calf serum (CS), 4% tryptose phosphate broth, and 100 IU/ml penicillin/streptomycin (ETC10). To treat cells with MG132 (Boston Biochem), cultured cells were incubated for 5 hours after electroporation at 37° C. and the BHK media was replaced with fresh media containing the protease inhibitor at a final concentration of […]. Incubation was continued at 37° C. for a further 12 hours before the cells were either harvested for Western blot analysis or fixed for indirect immunofluorescence studies.

SPPase [3] = assay: Signal peptide processing of p-PrlPP/29 by CHAPS-solubilised ER membrane proteins containing SPPase activity; type: biochemical, dog; parameters: SPF production: dose or concentration left out as unconfirmed
Protocol: Radio-labelled p-Prl^PP/29 signal peptide was generated by in vitro translation in wheat germ extract containing [^35S]-methionine. Peptide was added to CHAPS-solubilised membranes in the absence or presence of TBL4K (at the indicated final concentrations) and incubated for 1 hour at 30° C. Proteins were precipitated with 10% trichloroacetic acid and analysed by SDS-PAGE using Tris-bicine-urea acrylamide gels. Bands corresponding to signal peptide substrate (ps) and the fragment of signal peptide remaining after SPPase processing (SPF) are indicated.
The inhibitory effect of TBL4K on SPPase was assayed with CHAPS-solubilised ER membrane proteins and an in vitro translated peptide substrate. The substrate was a 29 aa residues long mutant signal peptide of pre-prolactin (p-Prl^PP/29; […]). The VV→PP mutation at the end of the signal peptide prevents cleavage by signal peptidase, which can cleave the peptide at the cryptic cleavage site at G27 when solubilised in CHAPS (B.M. unpublished). […] Proteins were precipitated by adding 4 μl of 100% trichloroacetic acid, and analysed by SDS-PAGE using Tris-bicine-urea acrylamide gels (15% T or 10% T, 5% C; 8 M urea) (Wiltfang et al., 1997 Electrophoresis 18, 527-532). […]

[4] = test system: T2, p-Prl^PP/29, 29 aa mutant signal peptide of pre-prolactin
T2 sequence: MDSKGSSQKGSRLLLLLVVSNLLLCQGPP

T1 sequence (A0A8I3P6M4 entry or part of it): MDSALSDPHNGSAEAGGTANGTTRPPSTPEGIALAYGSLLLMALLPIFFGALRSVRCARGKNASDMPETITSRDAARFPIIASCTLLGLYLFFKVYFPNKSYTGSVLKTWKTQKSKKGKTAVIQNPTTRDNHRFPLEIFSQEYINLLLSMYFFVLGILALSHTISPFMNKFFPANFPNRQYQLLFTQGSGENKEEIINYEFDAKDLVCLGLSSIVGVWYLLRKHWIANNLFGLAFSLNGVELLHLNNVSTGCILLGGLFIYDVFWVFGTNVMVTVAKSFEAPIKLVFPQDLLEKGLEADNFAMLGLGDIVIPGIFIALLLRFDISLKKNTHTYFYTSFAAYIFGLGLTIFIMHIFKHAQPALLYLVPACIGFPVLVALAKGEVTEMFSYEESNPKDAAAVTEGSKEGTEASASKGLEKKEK

## CC(C)C[C@H](NC(=O)OCc1ccccc1)C(=O)N[C@@H](CC(C)C)C(=O)NCC(=O)CNC(=O)[C@H](CC(C)C)NC(=O)[C@H](CC(C)C)NC(=O)OCc1ccccc1 [(Z-LL)2 ketone]
SPPase [1]; highest concentration of (Z-LL)2 ketone, FIG. 10
  Labelling by TBL4K in presence of competitor: almost completely abolished
[2]; FIG. 1A
  Cleavage by SPPase of the signal peptide generated from SP-E1/100: blocked
[2]
  Production of the 19 kDa core species (core179) from core-E1/100: blocked
[2]; listed as SPPase inhibitor
  Production of the 19 kDa core species (core179) from core-E1/100: not generated
Signal peptidase
  Effect on cleavage by signal peptidase: does not affect

## CC(C)C[C@@H](C=O)NC(=O)[C@H](CC(C)C)NC(=O)[C@H](CC(C)C)NC(=O)OCc1ccccc1 [MG132] (Cbz-Leu-Leu-Leu-aldehyde)
BHK C13 cells; FIG. 7B lanes 3 and 4
  Levels of core produced by pSF/CE1E2 (core variant lacking residues 125-144): enhanced levels
BHK C13 cells; FIG. 7B lanes 5 and 6
  Amount of core in cells electroporated with pSF/MUTIII RNA (125-144 deleted, signal peptide mutations): did not affect

## (TDBA-LL)(Biotin-X-LL) ketone [TBL4K]
SPPase [1]; UV light, FIG. 10 lane 3
  Proteins labelled after UV activation: labelling of a major product of about 42 kDa
SPPase [3]; highest concentration used
  SPF production: abolished
SPPase [3]; substrate p-PrlPP/29, 1 hour at 30° C., FIG. 9, read-out: IC50 for inhibition of SPPase activity
  pIC50: ~7.30

## signal peptide peptidase (SPPase) of ER-derived rough microsomes from dog pancreas
[4]
  signal peptide processing (production of the SPF fragment) with CHAPS-solubilised ER membrane proteins: signal peptide processing reactions were performed with a substrate, p-Prl^PP/29, that corresponds to a mutated signal peptide of pre-prolactin, and CHAPS-solubilised ER membrane proteins containing SPPase activity
SP-E1/100 MUTII
  cleavage of the signal peptide (in vitro translation/translocation): cleavage of the signal peptide was reduced with both mutants, but to a greater extent with pSP/MUTII as compared to pSP/MUTI
SP-E1/100 (wild type)
  signal peptide processing by SPPase (in vitro translation/translocation, with and without (Z-LL)2 ketone): the internal signal sequence at the junction of core-E1 functions as a typical ER targeting signal and is a substrate not only for signal peptidase but also for SPPase
core-E1/100 MUTII
  product cleaved by SPPase (in vitro translation/translocation): failed to generate any detectable product that had been cleaved by SPPase
core-E1/100 MUTI
  efficiency of processing (core179 relative to core191+core179): reduced efficiency of processing from 40% to 12%
core-E1/100 MUTIII
  product cleaved by SPPase (in vitro translation/translocation): failed to generate any detectable product that had been cleaved by SPPase
SP-E1/100 MUTI
  cleavage of the signal peptide (in vitro translation/translocation): cleavage of the signal peptide was reduced with both mutants, but to a greater extent with pSP/MUTII as compared to pSP/MUTI
core-E1/100 (wild type)
  efficiency of processing (core179 relative to core191+core179): reduced efficiency of processing from 40% to 12%
  production of the 19 kDa core species (in vitro translation/translocation, with and without (Z-LL)2 ketone): the signal peptide at the junction of core-E1 sequences in HCV is first cleaved by signal peptidase and subsequently processed by SPPase
SP-E1/100 MUTIII
  processing of the signal peptide by SPPase: less than 5% processing of the signal peptide by SPPase
